Ki data for 1 compound are collected here from ChEMBL document CHEMBL3044650, “Interaction studies of E. coli uracil phosphoribosyltransferase with 5-fluorouracil for potent anti cancer activity” (Med Chem Res, 2012).

A word on the Ki: it is a measure of affinity in units of concentration, obtained from inhibition or displacement.

Structures are written as SMILES.

The target of the experiment is T1, Uracil phosphoribosyltransferase (Escherichia coli (strain K12), UniProt P0A8F0).
T1 sequence (P0A8F0 whole entry): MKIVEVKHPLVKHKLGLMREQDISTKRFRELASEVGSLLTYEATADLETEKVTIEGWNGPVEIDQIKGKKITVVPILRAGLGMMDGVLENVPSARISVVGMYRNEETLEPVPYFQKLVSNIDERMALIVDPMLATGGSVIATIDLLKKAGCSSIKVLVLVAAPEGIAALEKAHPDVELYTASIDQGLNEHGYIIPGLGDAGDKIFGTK
Description: Inhibition of Escherichia coli K-12 MTCC 1302 UPRT activity by spectrophotometry.

Compound `O=c1[nH]cc(F)c(=O)[nH]1` [FLUOROURACIL] had an inhibition constant Ki of 13 µM.
